# Results published in patent US4366149A, “Antitumor anthracycline glycosides, their preparation, intermediates therefor, and compositions and use thereof” (priority 1980, dated 1982).
# Where two headings read alike, the source gives them in different places.
# Assays:
# HeLa cells = HeLa cells cloning efficiency in vitro; format: cell-based; conditions: for IC50: read-out: ID50 (HeLa cells cloning efficiency); for cytotoxicity on HeLa cells cloning efficiency, in words: in vitro, compared with daunorubicin
# Protocol: Activity on HeLa cells cloning efficiency in vitro. Treatment for 24 hours
# P388 ascitic leukemia = assay: Activity against P388 ascitic leukemia in mice; format: in vivo; conditions: for activity against P388 leukemia, in words: preliminary test in mice
# Excerpt: Activity against P388 ascitic leukemia. Treatment i.p. on day one after tumour inoculation.
# [1] = Homo sapiens, HeLa, 24 h, read-out: % of controls (HeLa cells cloning efficiency)
# [2] = 6 mg/kg i.p. on day one after tumour inoculation
# [3] = 9 mg/kg i.p. on day one after tumour inoculation
# [4] = 13.5 mg/kg i.p. on day one after tumour inoculation
# [5] = 10 mg/kg i.p. on day one after tumour inoculation
# [6] = 20 mg/kg i.p. on day one after tumour inoculation
# [7] = 40 mg/kg i.p. on day one after tumour inoculation
# [8] = 2.9 mg/kg i.p. on day one after tumour inoculation
# [9] = 4.4 mg/kg i.p. on day one after tumour inoculation
# [10] = 6.6 mg/kg i.p. on day one after tumour inoculation
structure (smiles),measurement,setting,value
"COc1cccc2c1C(=O)c1c(O)c3c(c(O)c1C2=O)C[C@@](O)(C(C)=O)C[C@@H]3O[C@H]1C[C@H](N)[C@H](N)[C@H](C)O1 [XOO-O132 (I-A), 4'-amino-4'-deoxy-daunorubicin]",activity at 0.0062 µg/mL,HeLa cells; [1],98%
same,activity at 0.025 µg/mL,HeLa cells; [1],70%
same,activity at 0.1 µg/mL,HeLa cells; [1],0%
same,IC50,"HeLa cells; Homo sapiens, HeLa, 24 h",0.035 µg/mL
same,"cytotoxicity on HeLa cells cloning efficiency, in words",HeLa cells,less cytotxic than daunorubicin
same,T/C %,P388 ascitic leukemia; [2],181%
same,Toxicity Deaths,P388 ascitic leukemia; [2],0/10
same,T/C %,P388 ascitic leukemia; [3],190%
same,Toxicity Deaths,P388 ascitic leukemia; [3],0/10
same,T/C %,P388 ascitic leukemia; [4],222%
same,Toxicity Deaths,P388 ascitic leukemia; [4],0/10
same,"activity at the maximal dose tested, in words","P388 ascitic leukemia; P388 leukemia in mice, 13.5 mg/kg",highly active
same,"toxicity, in words","P388 ascitic leukemia; P388 leukemia in mice, compared with daunorubicin",less toxic than daunorubicin
same,"activity against P388 leukemia, in words",P388 ascitic leukemia; compared with daunorubicin,much more active daunorubicin
"COc1cccc2c1C(=O)c1c(O)c3c(c(O)c1C2=O)C[C@@](O)(C(C)=O)C[C@@H]3O[C@H]1C[C@H](N)[C@@H](NC(=O)C(F)(F)F)[C@H](C)O1 [XOO-O136 (I-B), 4'-deoxy-4'-epi-trifluoroacetamido-daunorubicin]",activity at 0.1 µg/mL,HeLa cells; [1],211%
same,activity at 0.4 µg/mL,HeLa cells; [1],21%
same,activity at 1.6 µg/mL,HeLa cells; [1],0%
same,IC50,"HeLa cells; Homo sapiens, HeLa, 24 h",0.18 µg/mL
same,"cytotoxicity on HeLa cells cloning efficiency, in words",HeLa cells,less cytotxic than daunorubicin
same,T/C %,P388 ascitic leukemia; [5],145%
same,Toxicity Deaths,P388 ascitic leukemia; [5],0/10
same,T/C %,P388 ascitic leukemia; [6],154%
same,Toxicity Deaths,P388 ascitic leukemia; [6],0/10
same,T/C %,P388 ascitic leukemia; [7],163%
same,Toxicity Deaths,P388 ascitic leukemia; [7],2/10
same,"activity against P388 leukemia, in words",P388 ascitic leukemia; compared with daunorubicin,much more active daunorubicin
"COc1cccc2c1C(=O)c1c(O)c3c(c(O)c1C2=O)C[C@@](O)(C(C)=O)C[C@@H]3O[C@H]1C[C@H](N)[C@H](O)[C@H](C)O1 [Daunorubicin, daunorubicin, reference compound]",activity at 0.0031 µg/mL,"HeLa cells; Homo sapiens, HeLa, dose 3.1 ng/ml, treatment for 24 hours, data of 2 experiments, read-out: % of controls (HeLa cells cloning efficiency)",88 to 98%
same,activity at 0.0062 µg/mL,"HeLa cells; Homo sapiens, HeLa, dose 6.2 ng/ml, treatment for 24 hours (daunorubicin: data of 2 experiments), read-out: % of controls (HeLa cells cloning efficiency)",73 to 87%
same,IC50,"HeLa cells; Homo sapiens, HeLa, treatment for 24 hours (daunorubicin: data of 2 experiments)",0.012 µg/mL
same,T/C %,P388 ascitic leukemia; [8],181%
same,Toxicity Deaths,P388 ascitic leukemia; [8],0/10
same,T/C %,P388 ascitic leukemia; [9],140%
same,Toxicity Deaths,P388 ascitic leukemia; [9],9/10
same,T/C %,P388 ascitic leukemia; [10],118%
same,Toxicity Deaths,P388 ascitic leukemia; [10],10/10
